How the values were obtained:
Type in all cases: biochemical
[1] = target: ROCK2 (Homo sapiens, UniProt O75116); test: In vitro inhibitory activity assay ROCK2 (ADP-Glo); details: ATP 200 μM, Cheng-Prusoff; read-out: ROCK2 (Ki, range of activity)
Protocol: (§1) In Vitro Inhibitory Activity Assay Description ROCK1 and ROCK2
(§2) The effectiveness of compounds of the present invention to inhibit Rho kinase activity can be determined in a 10 μl assay containing 40 mM Tris pH7.5, 20 mM MgCl2 0.1 mg/mL BSA, 50 μM DTT and 2.5 μM peptide substrate (Myelin Basic Protein) using an ADP-Glo kit (Promega). Compounds were dissolved in DMSO such that the final concentration of DMSO was 1% in the assay. All reactions/incubations are performed at 25° C. Compound (2 ul) and either Rho kinase 1 or 2 (4 μl) were mixed and incubated for 30 mins. Reactions were initiated by addition of ATP (4 μl) such that the final concentration of ATP in the assay was 200 μM. After a 1 hour incubation 10 μl of ADP-Glo Reagent was added and after a further 1 hour incubation 20 ul of Kinase Detection Buffer was added and the mixture incubated for a further 45 minutes. The luminescent signal was measured on a luminometer. […] Compounds were tested in dose-response format and the inhibition of kinase activity was calculated at each concentration of compound. To determine the IC50 (concentration of compound required to inhibit 50% of the enzyme activity) data were fit to a plot of % inhibition vs Log 10 compound concentration using a sigmoidal fit with a variable slope and fixing the maximum to 100% and the minimum to 0%. To determine the Ki values the Cheng-Prusoff equation was utilized (Ki=IC50/(1+[S]/Km).

[2] = target: PKA (Homo sapiens, UniProt P17612); test: In vitro inhibitory activity assay for PKA (ADP-Glo), reported as selectivity ratio vs ROCK2; details: Ki value for PKA divided by Ki value of ROCK2
Protocol: In Vitro Inhibitory Activity Assay Description for PKA
The effectiveness of compounds of the present invention to inhibit PKA activity can be determined in a 10 μl assay containing 40 mM Tris pH7.5, 20 mM MgCl2 0.1 mg/ml BSA, 50 μM DTT and 260 μM peptide substrate (kemptide) using an ADP-Glo kit (Promega). Compounds were dissolved in DMSO such that the final concentration of DMSO was 1% in the assay. All reactions/incubations are performed at 25° C. Compound and PKA enzyme (6 μl) were mixed and incubated for 30 mins. Reactions were initiated by addition of ATP (4 μl) such that the final concentration of ATP in the assay was 10 μM. After a 30 minute incubation 10p of ADP-Glo Reagent was added and after a further 1 hour incubation 20 μl of Kinase Detection Buffer was added and the mixture incubated for a further 45 minutes. The luminescent signal was measured on a luminometer. […] Compounds were tested in dose-response format and the inhibition of kinase activity was calculated at each concentration of compound. To determine the IC50 (concentration of compound required to inhibit 50% of the enzyme activity) data were fit to a plot of % inhibition vs Log10 compound concentration using a sigmoidal fit with a variable slope and fixing the maximum to 100% and the minimum to 0%. To determine the Ki values the Cheng-Prusoff equation was utilized (Ki=IC50/(1+[S]/Km).
In vitro inhibitory activities for PKA were reported as selectivity ratio vs. ROCK-2.

[3] = target: ROCK1 (Homo sapiens, UniProt Q13464); test: In vitro inhibitory activity assay ROCK1 (ADP-Glo); details: ATP 200 μM, Cheng-Prusoff; read-out: ROCK 1 (Ki, range of activity)
Protocol: as §1, §2

Sequence of ROCK2 (O75116 whole entry): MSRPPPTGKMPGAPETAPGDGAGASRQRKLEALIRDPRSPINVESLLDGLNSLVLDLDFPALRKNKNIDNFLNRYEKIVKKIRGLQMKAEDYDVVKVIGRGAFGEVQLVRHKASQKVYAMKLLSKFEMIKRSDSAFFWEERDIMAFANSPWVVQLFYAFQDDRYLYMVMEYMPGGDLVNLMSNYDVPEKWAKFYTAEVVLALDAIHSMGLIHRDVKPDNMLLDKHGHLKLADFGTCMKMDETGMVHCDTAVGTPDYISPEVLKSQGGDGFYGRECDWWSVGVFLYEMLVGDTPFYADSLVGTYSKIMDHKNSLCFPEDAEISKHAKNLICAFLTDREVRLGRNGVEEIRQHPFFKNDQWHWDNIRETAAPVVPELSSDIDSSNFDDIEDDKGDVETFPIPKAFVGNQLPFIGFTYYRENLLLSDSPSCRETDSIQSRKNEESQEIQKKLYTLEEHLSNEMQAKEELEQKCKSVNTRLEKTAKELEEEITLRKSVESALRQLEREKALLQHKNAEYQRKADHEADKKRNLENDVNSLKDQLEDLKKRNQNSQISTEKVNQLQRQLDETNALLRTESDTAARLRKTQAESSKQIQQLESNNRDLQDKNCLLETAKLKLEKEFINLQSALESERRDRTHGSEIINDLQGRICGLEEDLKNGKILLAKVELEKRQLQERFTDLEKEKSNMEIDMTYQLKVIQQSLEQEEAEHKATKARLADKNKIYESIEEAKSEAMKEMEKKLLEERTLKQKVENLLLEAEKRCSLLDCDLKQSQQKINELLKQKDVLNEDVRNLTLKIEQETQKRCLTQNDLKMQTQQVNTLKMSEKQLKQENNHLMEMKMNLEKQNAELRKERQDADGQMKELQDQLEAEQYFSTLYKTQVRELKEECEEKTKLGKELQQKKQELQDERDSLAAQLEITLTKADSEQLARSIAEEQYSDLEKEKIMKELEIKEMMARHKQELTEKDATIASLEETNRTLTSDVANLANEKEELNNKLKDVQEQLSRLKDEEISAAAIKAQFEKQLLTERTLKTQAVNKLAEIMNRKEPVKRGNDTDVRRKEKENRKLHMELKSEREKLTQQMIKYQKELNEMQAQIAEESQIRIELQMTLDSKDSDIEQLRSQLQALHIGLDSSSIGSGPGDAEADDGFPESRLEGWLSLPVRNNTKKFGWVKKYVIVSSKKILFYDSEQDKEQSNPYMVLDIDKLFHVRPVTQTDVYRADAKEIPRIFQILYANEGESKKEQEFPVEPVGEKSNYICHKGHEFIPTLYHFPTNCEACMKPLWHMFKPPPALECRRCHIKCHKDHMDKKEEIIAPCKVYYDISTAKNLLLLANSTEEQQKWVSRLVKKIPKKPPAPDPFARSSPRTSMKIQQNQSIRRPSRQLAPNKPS
Sequence of ROCK1 (Q13464 whole entry): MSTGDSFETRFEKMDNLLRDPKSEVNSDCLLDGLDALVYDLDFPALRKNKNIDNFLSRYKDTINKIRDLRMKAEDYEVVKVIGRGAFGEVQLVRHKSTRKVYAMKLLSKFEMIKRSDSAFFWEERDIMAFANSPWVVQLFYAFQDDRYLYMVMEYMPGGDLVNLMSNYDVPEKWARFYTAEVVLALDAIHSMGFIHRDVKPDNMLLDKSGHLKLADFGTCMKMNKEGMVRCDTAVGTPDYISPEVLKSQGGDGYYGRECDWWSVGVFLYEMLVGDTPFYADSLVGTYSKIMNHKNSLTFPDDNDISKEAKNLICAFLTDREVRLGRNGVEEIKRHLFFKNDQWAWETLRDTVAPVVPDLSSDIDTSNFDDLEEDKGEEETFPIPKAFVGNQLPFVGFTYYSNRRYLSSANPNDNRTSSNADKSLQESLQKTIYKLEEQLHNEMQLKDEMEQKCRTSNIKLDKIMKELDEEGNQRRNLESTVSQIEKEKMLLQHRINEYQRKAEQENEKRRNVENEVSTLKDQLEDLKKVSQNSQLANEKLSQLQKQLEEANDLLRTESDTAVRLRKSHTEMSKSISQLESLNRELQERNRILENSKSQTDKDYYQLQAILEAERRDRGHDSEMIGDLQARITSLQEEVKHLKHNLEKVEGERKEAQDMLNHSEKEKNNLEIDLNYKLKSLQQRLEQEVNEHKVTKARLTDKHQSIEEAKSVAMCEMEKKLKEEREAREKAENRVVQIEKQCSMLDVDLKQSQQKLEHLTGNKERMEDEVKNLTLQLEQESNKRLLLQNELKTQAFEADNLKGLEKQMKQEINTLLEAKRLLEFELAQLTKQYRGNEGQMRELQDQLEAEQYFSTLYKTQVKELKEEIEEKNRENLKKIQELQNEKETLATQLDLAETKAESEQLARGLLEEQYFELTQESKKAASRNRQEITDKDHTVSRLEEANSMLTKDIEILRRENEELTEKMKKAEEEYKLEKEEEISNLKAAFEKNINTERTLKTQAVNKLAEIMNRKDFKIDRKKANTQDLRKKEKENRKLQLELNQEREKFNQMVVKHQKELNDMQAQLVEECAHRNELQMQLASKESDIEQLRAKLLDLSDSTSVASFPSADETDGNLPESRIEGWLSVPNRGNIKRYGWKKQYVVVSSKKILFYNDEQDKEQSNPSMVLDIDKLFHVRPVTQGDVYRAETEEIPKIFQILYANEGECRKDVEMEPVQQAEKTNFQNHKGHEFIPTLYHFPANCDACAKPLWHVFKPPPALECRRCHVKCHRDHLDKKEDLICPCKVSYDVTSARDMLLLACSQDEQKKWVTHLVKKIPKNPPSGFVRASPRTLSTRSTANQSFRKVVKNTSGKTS

SMILES | Ki [1] | Ratio (PKA/ROCK2) [2] | Ki [3]
CO[C@H]1C[C@H](CNC(=O)c2cccc(CNc3ncc(-c4ccnc(N)n4)c4c3CCO4)c2)C1 [Example 39, 3-(((7-(2-Aminopyrimidin-4-yl)-2,3-dihydrofuro[3,2-c]pyridin-4-yl)amino)methyl)-N-(((1R,3R)-3-methoxycyclobutyl)methyl)benzamide] | ≤ 3 nM | *** (ratio≥10) | ≤ 3 nM
CC(C)(O)CNC(=O)c1cccc(CNc2ncc(-c3ccnc(N)n3)c3c2CCO3)c1 [Example 17, 3-(((7-(2-Aminopyrimidin-4-yl)-2,3-dihydrofuro[3,2-c]pyridin-4-yl)amino)methyl)-N-(2-hydroxy-2-methylpropyl)benzamide] | ≤ 3 nM | *** (ratio≥10) | ≤ 3 nM
CNC(=O)c1cccc(CNc2ncc(-c3ccnc(N)n3)c3c2CCO3)c1 [Example 21, 3-(((7-(2-Aminopyrimidin-4-yl)-2,3-dihydrofuro[3,2-c]pyridin-4-yl)amino)methyl)-N-methylbenzamide] | ≤ 3 nM | *** (ratio≥10) | 3 to 30 nM
Nc1nccc(-c2cnc(NCc3cccc(C(=O)NC4CCOCC4)c3)c3c2OCC3)n1 [Example 7, 3-(((7-(2-Aminopyrimidin-4-yl)-2,3-dihydrofuro[3,2-c]pyridin-4-yl)amino)methyl)-N-(tetrahydro-2H-pyran-4-yl)benzamide] | ≤ 3 nM | *** (ratio≥10) | ≤ 3 nM
Nc1nccc(-c2cnc(NCc3cccc(C(=O)NCCCN4CCOCC4)c3)c3c2OCC3)n1 [Example 16, 3-(((7-(2-Aminopyrimidin-4-yl)-2,3-dihydrofuro[3,2-c]pyridin-4-yl)amino)methyl)-N-(3-morpholinopropyl)benzamide] | ≤ 3 nM | *** (ratio≥10) | ≤ 3 nM
Nc1nccc(-c2cnc(NCc3cccc(C(=O)NC4CCC4)c3)c3c2OCC3)n1 [Example 1, 3-(((7-(2-Aminopyrimidin-4-yl)-2,3-dihydrofuro[3,2-c]pyridin-4-yl)amino)methyl)-N-cyclobutylbenzamide] | ≤ 3 nM | ** (5≤ratio<10) | ≤ 3 nM
Nc1nccc(-c2cnc(NCc3cccc(C(=O)NCC4CCO4)c3)c3c2OCC3)n1 (stereo not drawn) [Example 38, 3-(((7-(2-Aminopyrimidin-4-yl)-2,3-dihydrofuro[3,2-c]pyridin-4-yl)amino)methyl)-N-(oxetan-2-ylmethyl)benzamide] | ≤ 3 nM | *** (ratio≥10) | ≤ 3 nM
CCOCCNC(=O)c1cccc(CNc2ncc(-c3ccnc(N)n3)c3c2CCO3)c1 [Example 20, 3-(((7-(2-Aminopyrimidin-4-yl)-2,3-dihydrofuro[3,2-c]pyridin-4-yl)amino)methyl)-N-(2-ethoxyethyl)benzamide] | ≤ 3 nM | *** (ratio≥10) | ≤ 3 nM
C[C@@H]1CCC[C@H](C)N1CCNC(=O)c1cccc(CNc2ncc(-c3ccnc(N)n3)c3c2CCO3)c1 [Example 19, 3-(((7-(2-Aminopyrimidin-4-yl)-2,3-dihydrofuro[3,2-c]pyridin-4-yl)amino)methyl)-N-(2-((2R,6S)-2,6-dimethylpiperidin-1-yl)ethyl)benzamide] | ≤ 3 nM | *** (ratio≥10) | ≤ 3 nM
COCCCNC(=O)c1cc(CNc2ncc(-c3ccnc(N)n3)c3c2CCO3)ccc1F [Example 57, 5-(((7-(2-Aminopyrimidin-4-yl)-2,3-dihydrofuro[3,2-c]pyridin-4-yl)amino)methyl)-2-fluoro-N-(3-methoxypropyl)benzamide] | ≤ 3 nM | *** (ratio≥10) | 3 to 30 nM
CCCNC(=O)c1cccc(CNc2ncc(-c3ccnc(N)n3)c3c2CCO3)c1 [Example 40, 3-(((7-(2-Aminopyrimidin-4-yl)-2,3-dihydrofuro[3,2-c]pyridin-4-yl)amino)methyl)-N-propylbenzamide] | ≤ 3 nM | *** (ratio≥10) | ≤ 3 nM

Further lines, results first:

Ki [1] | Ratio (PKA/ROCK2) [2] | Ki [3] | SMILES
≤ 3 nM | *** (ratio≥10) | ≤ 3 nM | CC(F)(F)CNC(=O)c1cccc(CNc2ncc(-c3ccnc(N)n3)c3c2CCO3)c1 [Example 44, 3-(((7-(2-Aminopyrimidin-4-yl)-2,3-dihydrofuro[3,2-c]pyridin-4-yl)amino)methyl)-N-(2,2-difluoropropyl)benzamide]
≤ 3 nM | ** (5≤ratio<10) | ≤ 3 nM | CC1(CNC(=O)c2cccc(CNc3ncc(-c4ccnc(N)n4)c4c3CCO4)c2)CC1 [Example 30, 3-(((7-(2-Aminopyrimidin-4-yl)-2,3-dihydrofuro[3,2-c]pyridin-4-yl)amino)methyl)-N-((1-methylcyclopropyl)methyl)benzamide]
≤ 3 nM | *** (ratio≥10) | ≤ 3 nM | Nc1nccc(-c2cnc(NCc3cccc(C(=O)NCCN4CCCCC4)c3)c3c2OCC3)n1 [Example 5, 3-(((7-(2-Aminopyrimidin-4-yl)-2,3-dihydrofuro[3,2-c]pyridin-4-yl)amino)methyl)-N-(2-(piperidin-1-yl)ethyl)benzamide]
≤ 3 nM | *** (ratio≥10) | ≤ 3 nM | Nc1nccc(-c2cnc(NCc3cccc(C(=O)NCCC(F)F)c3)c3c2OCC3)n1 [Example 50, 3-(((7-(2-Aminopyrimidin-4-yl)-2,3-dihydrofuro[3,2-c]pyridin-4-yl)amino)methyl)-N-(3,3-difluoropropyl)benzamide]
≤ 3 nM | *** (ratio≥10) | ≤ 3 nM | CC(C)(F)CNC(=O)c1cccc(CNc2ncc(-c3ccnc(N)n3)c3c2CCO3)c1 [Example 31, 3-(((7-(2-Aminopyrimidin-4-yl)-2,3-dihydrofuro[3,2-c]pyridin-4-yl)amino)methyl)-N-(2-fluoro-2-methylpropyl)benzamide]
3 to 30 nM | *** (ratio≥10) | > 30 nM | Nc1nccc(-c2cnc(NCc3cc(C(=O)NC4CCOCC4)ccc3F)c3c2OCC3)n1 [Example 61, 3-(((7-(2-Aminopyrimidin-4-yl)-2,3-dihydrofuro[3,2-c]pyridin-4-yl)amino)methyl)-4-fluoro-N-(tetrahydro-2H-pyran-4-yl)benzamide]
≤ 3 nM | *** (ratio≥10) | ≤ 3 nM | CC1(C)CC(NC(=O)c2cccc(CNc3ncc(-c4ccnc(N)n4)c4c3CCO4)c2)CO1 (stereo not drawn) [Example 3, 3-(((7-(2-Aminopyrimidin-4-yl)-2,3-dihydrofuro[3,2-c]pyridin-4-yl)amino)methyl)-N-(5,5-dimethyltetrahydrofuran-3-yl)benzamide]
≤ 3 nM | *** (ratio≥10) | ≤ 3 nM | CC(C)(C)N1CC(CNC(=O)c2cccc(CNc3ncc(-c4ccnc(N)n4)c4c3CCO4)c2)CC1=O (single isomer, unassigned) [Example 32, 3-(((7-(2-Aminopyrimidin-4-yl)-2,3-dihydrofuro[3,2-c]pyridin-4-yl)amino)methyl)-N-((1-(tert-butyl)-5-oxopyrrolidin-3-yl)methyl)benzamide]
≤ 3 nM | *** (ratio≥10) | ≤ 3 nM | Nc1nccc(-c2cnc(NCc3cccc(C(=O)N[C@H]4[C@@H]5COC[C@@H]54)c3)c3c2OCC3)n1 [Example 23, 3-(((7-(2-Aminopyrimidin-4-yl)-2,3-dihydrofuro[3,2-c]pyridin-4-yl)amino)methyl)-N-((1R,5S,6r)-3-oxabicyclo[3.1.0]hexan-6-yl)benzamide]
3 to 30 nM | *** (ratio≥10) | > 30 nM | CNC(=O)c1cccc(CNc2ncc(-c3ccnc(N)n3)c3c2CCO3)n1 [Example 63, 6-(((7-(2-Aminopyrimidin-4-yl)-2,3-dihydrofuro[3,2-c]pyridin-4-yl)amino)methyl)-N-methylpicolinamide]
